According to PubChem BioAssay (NCI):
“And” between values parts separate entries of the source, which are not always exact repeats. Equal entries are not always repeated.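 Step 1: Grow cells in 96-well plates. Step 2: Expose to compound for 48 hours at 5 concentrations. Step 3: Interpolate endpoints linearly; if unreached, use highest concentration. The concentration for 50% growth inhibition is given as GI50. TGI is the concentration that stops growth completely.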

Legend:
Assay in all cases: NCI tumour cell line growth inhibition, 48 h
786-0 renal = system: 786-0 renal
CAKI-1 renal = system: CAKI-1 renal
DU-145 prostate = system: DU-145 prostate
HCC-2998 colon = system: HCC-2998 colon
HCT-15 colon = system: HCT-15 colon
HT29 colon = system: HT29 colon
K-562 leukemia = system: K-562 leukemia
KM12 colon = system: KM12 colon
NCI-H226 lung = system: NCI-H226 lung
SNB-19 CNS = system: SNB-19 CNS

`O=C(NO)[C@@H](Cc1ccccc1)NS(=O)(=O)c1ccc(-c2ccccc2)cc1` showed a GI50 (786-0 renal) of 11.9 µM, a TGI (786-0 renal) of over 25 µM and a GI50 (CAKI-1 renal) of 9.6 µM. The TGI (CAKI-1 renal) was over 25 µM, the GI50 (DU-145 prostate) was 11.1 µM and the TGI (DU-145 prostate) was over 25 µM. For the same compound, the GI50 (HCC-2998 colon) was over 25 µM, the TGI (HCC-2998 colon) was over 25 µM and the GI50 (HCT-15 colon) was over 25 µM. The TGI (HCT-15 colon) was over 25 µM, the GI50 (HT29 colon) was over 25 µM and the TGI (HT29 colon) was over 25 µM. For the same compound, the GI50 (K-562 leukemia) was 10.1 µM, the TGI (K-562 leukemia) was over 25 µM and the GI50 (KM12 colon) was over 25 µM. For the same compound, the TGI (KM12 colon) was over 25 µM, the GI50 (NCI-H226 lung) was over 25 µM and the TGI (NCI-H226 lung) was over 25 µM. The GI50 (SNB-19 CNS) was over 25 µM and the TGI (SNB-19 CNS) was over 25 µM.

Compound `Cc1cc2c(C(N)=O)c(N)n(-c3c(C)ccc(O)c3C)c2nc1C` has a GI50 (786-0 renal) of 3.37 µM, a TGI (786-0 renal) of over 100 µM and a GI50 (CAKI-1 renal) of 0.4 µM. For the same compound, the TGI (CAKI-1 renal) was 10.3 µM, the GI50 (DU-145 prostate) was 4.16 µM and the TGI (DU-145 prostate) was 19.7 µM. The GI50 (HCC-2998 colon) was 3.21 µM, the TGI (HCC-2998 colon) was 11.7 µM and the GI50 (HCT-15 colon) was 5.51 µM. The TGI (HCT-15 colon) was 65.4 µM, the GI50 (HT29 colon) was 0.585 µM and the TGI (HT29 colon) was over 100 µM. For the same compound, the GI50 (K-562 leukemia) was 2 µM, the TGI (K-562 leukemia) was over 100 µM and the GI50 (KM12 colon) was 4.54 µM. It also gave a TGI (KM12 colon) of over 100 µM, a GI50 (NCI-H226 lung) of 0.569 µM and a TGI (NCI-H226 lung) of 4.89 µM. The GI50 (SNB-19 CNS) was 8.28 µM and the TGI (SNB-19 CNS) was over 100 µM.

Compound `NS(=O)(=O)CC1CC[CH-]CC1.[Cl-].[Cl-].[Cl-].[Cl-].[Cl-].[Sb+5].c1ccncc1` has a GI50 (786-0 renal) of over 100 µM, a TGI (786-0 renal) of over 100 µM and a GI50 (CAKI-1 renal) of over 100 µM. For the same compound, the TGI (CAKI-1 renal) was over 100 µM, the GI50 (DU-145 prostate) was over 100 µM and the TGI (DU-145 prostate) was over 100 µM. It also gave a GI50 (HCC-2998 colon) of over 100 µM, a TGI (HCC-2998 colon) of over 100 µM and a GI50 (HCT-15 colon) of over 100 µM. For the same compound, the TGI (HCT-15 colon) was over 100 µM, the GI50 (HT29 colon) was over 100 µM and the TGI (HT29 colon) was over 100 µM. The GI50 (K-562 leukemia) was over 100 µM, the TGI (K-562 leukemia) was over 100 µM and the GI50 (KM12 colon) was over 100 µM. For the same compound, the TGI (KM12 colon) was over 100 µM, the GI50 (NCI-H226 lung) was over 100 µM and the TGI (NCI-H226 lung) was over 100 µM. For the same compound, the GI50 (SNB-19 CNS) was over 100 µM and the TGI (SNB-19 CNS) was over 100 µM.

For `COc1cc2nccc(Oc3ccc(NC(=O)Nc4cc(C)on4)c(Cl)c3)c2cc1OC`, the GI50 (786-0 renal) was 3.43 µM and 4.11 µM, the TGI (786-0 renal) was 23.3 µM and > 10 µM and the GI50 (CAKI-1 renal) was 2.58 µM and 2.25 µM. The TGI (CAKI-1 renal) was 7.67 µM and > 10 µM, the GI50 (DU-145 prostate) was 4.31 µM and 6.6 µM and the TGI (DU-145 prostate) was over 77.8 µM. For the same compound, the GI50 (HCC-2998 colon) was 9 µM and > 10 µM, the TGI (HCC-2998 colon) was over 100 µM and the GI50 (HCT-15 colon) was 4.36 µM and 4.2 µM. The TGI (HCT-15 colon) was over 100 µM, the GI50 (HT29 colon) was 3.01 µM and 2.78 µM and the TGI (HT29 colon) was 15.5 µM and > 10 µM. For the same compound, the GI50 (K-562 leukemia) was 0.0349 µM and 0.0609 µM, the TGI (K-562 leukemia) was over 100 µM and the GI50 (KM12 colon) was 0.178 µM and 0.25 µM. For the same compound, the TGI (KM12 colon) was over 66.6 µM, the GI50 (NCI-H226 lung) was 0.795 µM and 0.438 µM and the TGI (NCI-H226 lung) was 35.2 µM and > 10 µM. The GI50 (SNB-19 CNS) was 5.12 µM and > 10 µM and the TGI (SNB-19 CNS) was over 100 µM.

Compound `Cc1ccc(NC(=O)CSc2nnc3n(Cc4ccccc4)c(=O)c4c(C)c(C(N)=O)sc4n23)cc1` has a GI50 (786-0 renal) of 10 µM, a TGI (786-0 renal) of 49.7 µM and a GI50 (CAKI-1 renal) of over 100 µM. It also gave a TGI (CAKI-1 renal) of over 100 µM, a GI50 (DU-145 prostate) of 60.5 µM and a TGI (DU-145 prostate) of over 100 µM. The GI50 (HCC-2998 colon) was over 100 µM, the TGI (HCC-2998 colon) was over 100 µM and the GI50 (HCT-15 colon) was over 100 µM. For the same compound, the TGI (HCT-15 colon) was over 100 µM, the GI50 (HT29 colon) was over 100 µM and the TGI (HT29 colon) was over 100 µM. It also gave a GI50 (K-562 leukemia) of 42.5 µM, a TGI (K-562 leukemia) of over 100 µM and a GI50 (KM12 colon) of over 100 µM. For the same compound, the TGI (KM12 colon) was over 100 µM, the GI50 (NCI-H226 lung) was 27.2 µM and the TGI (NCI-H226 lung) was over 100 µM. It also gave a GI50 (SNB-19 CNS) of 14.6 µM and a TGI (SNB-19 CNS) of over 100 µM.

For `O=C1c2ccccc2-c2c1c1c(O)cccc1n2Cc1ccccn1`, the GI50 (786-0 renal) was over 100 µM, the TGI (786-0 renal) was over 100 µM and the GI50 (CAKI-1 renal) was 20.4 µM. It also gave a TGI (CAKI-1 renal) of over 100 µM, a GI50 (DU-145 prostate) of 36.5 µM and a TGI (DU-145 prostate) of over 100 µM. It also gave a GI50 (HCC-2998 colon) of 70.9 µM, a TGI (HCC-2998 colon) of over 100 µM and a GI50 (HCT-15 colon) of 53.8 µM. For the same compound, the TGI (HCT-15 colon) was over 100 µM, the GI50 (HT29 colon) was 88.6 µM and the TGI (HT29 colon) was over 100 µM. For the same compound, the GI50 (K-562 leukemia) was 18.3 µM, the TGI (K-562 leukemia) was 79 µM and the GI50 (KM12 colon) was over 100 µM. The TGI (KM12 colon) was over 100 µM, the GI50 (NCI-H226 lung) was 12.8 µM and the TGI (NCI-H226 lung) was 65.3 µM. The GI50 (SNB-19 CNS) was over 100 µM and the TGI (SNB-19 CNS) was over 100 µM.
